Here are results for eleven compounds from patent US10206394B2, “Herbicidal compounds” (Syngenta Participations AG, priority 2014, dated 2019).

Holding throughout (type): in vivo
The subject of data set [1] is Echinochloa crus-galli (ECHCG). The data set is described as follows: Glasshouse assay for herbicidal activity (pre- and post-emergence), percentage phytotoxicity. Conditions: Echinochloa crus-galli, Rate 250 g/ha, 100%=total damage, 0%=no damage. A digest of the protocol: (§1)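 Visual phytotoxicity score, 0% = undamaged to 100% = total kill, read 20 days after treatment for PRE and 15 days for POST. Pots of standard soil; treatment at day 1 (PRE) or roughly day 12 (POST). Glasshouse: 16 h photoperiod, 65% RH, 24/18 or 20/16 °C by climate type.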

Data set [2] has as its system Alopecurus myosuroides (ALOMY). The description is as above. Conditions: Alopecurus myosuroides, Rate 250 g/ha, 100%=total damage, 0%=no damage. The procedure, abridged:
as §1

Another data set relates to Avena fatua (AVEFA). Described as above. Conditions: Avena fatua, Rate 250 g/ha, 100%=total damage, 0%=no damage. The procedure, abridged:
as §1

A further data set has as its system Lolium perenne (LOLPE). The data set is described as above. Conditions: Lolium perenne, Rate 250 g/ha, 100%=total damage, 0%=no damage. The procedure, abridged:
as §1

Data set [3] concerns Winter Wheat variety 'Hereward'. Briefly: Glasshouse assay for crop safety, post-emergence, +/- safener cloquintocet-mexyl (CQC), percentage phytotoxicity. To be noted: 250 g/ha, evaluated after 13 days, 100=total damage, 0=no damage; for Post-emergence Crop Selectivity, percentage phytotoxicity, Wheat +CQC: with safener cloquintocet-mexyl (CQC) seed treatment 0.5 g/kg seed; for Post-emergence Crop Selectivity, percentage phytotoxicity, Wheat − CQC: without safener cloquintocet-mexyl (CQC). The text has this: Test—Glasshouse Assay for Crop Safety.
Seeds of the Winter Wheat variety ‘Hereward’ were seed treated with a wettable powder formulation of the cereal herbicide safener, cloquintocet mexyl, at a rate of 0.5 grams per kilogram of dry seed prior to the initiation of glasshouse testing. Three seeds were sown per 1.5 inch plastic pot into a sandy loam soil at a depth of 1 cm, 8 days prior to application of the test compounds and was watered and grown under controlled conditions in a glasshouse (at 24/16° C., day/night; 14 hours light; 65% humidity). The plants were sprayed Post-emergence with an aqueous spray solution derived from the formulation of the technical active ingredient in acetone/water (50:50) solution containing 0.5% Tween 20 (polyoxyethelyene sorbitan monolaurate, CAS RN 9005-64-5).
The test plants were then grown in a glasshouse under controlled conditions (at 24/16° C., day/night; 14 hours light; 65% humidity) and watered twice daily. After 13 days for pre and post-emergence, the test was evaluated (100=total damage to plant; 0=no damage to plant).

Setting [4] is: post-emergence, 360 h, post-emergence, assessed visually 15 DAA, read-out: Post-emergence herbicidal activity (percentage phytotoxicity) ECHCG POST.
[5] abbreviates: pre-emergence, 480 h, pre-emergence, assessed visually 20 DAA, read-out: Pre-emergence herbicidal activity (percentage phytotoxicity) ECHCG PRE.
The mark [6] stands for this setting: post-emergence, 360 h, post-emergence, assessed visually 15 DAA, read-out: Post-emergence herbicidal activity (percentage phytotoxicity) ALOMY POST.
Setting [7] is: pre-emergence, 480 h, pre-emergence, assessed visually 20 DAA, read-out: Pre-emergence herbicidal activity (percentage phytotoxicity) ALOMY PRE.
Setting [8] is: post-emergence, 360 h, post-emergence, assessed visually 15 DAA, read-out: Post-emergence herbicidal activity (percentage phytotoxicity) AVEFA POST.
The mark [9] stands for this setting: pre-emergence, 480 h, pre-emergence, assessed visually 20 DAA, read-out: Pre-emergence herbicidal activity (percentage phytotoxicity) AVEFA PRE.
The mark [10] stands for this setting: post-emergence, 360 h, post-emergence, assessed visually 15 DAA, read-out: Post-emergence herbicidal activity (percentage phytotoxicity) LOLPE POST.
The mark [11] stands for this setting: pre-emergence, 480 h, pre-emergence, assessed visually 20 DAA, read-out: Pre-emergence herbicidal activity (percentage phytotoxicity) LOLPE PRE.

Each structure is given as a SMILES string. Like-named read-outs stand apart in the source and are kept apart here.

Regarding `Cc1cc(C)c(C2C(=O)CC(CC(=O)NCCc3ccccc3)C2=O)c(C)c1` (stereo not drawn) [Compound A1, 2-[2,4-dioxo-3-(2,4,6-trimethylphenyl)cyclopentyl]-N-phenethyl-acetamide], the pest or weed control at 250 g/ha is 80% in data set [1] (setting [4]); 90% in data set [1] (setting [5]); 60% in data set [2] (setting [6]); 60% in data set [2] (setting [7]); 60% in the data set on Avena fatua (AVEFA) (setting [8]); 60% with Avena fatua (AVEFA) (setting [9]). Moreover, the pest or weed control at 250 g/ha in the data set on Lolium perenne (LOLPE) (setting [10]) amounted to 80%; with Lolium perenne (LOLPE) (setting [11]), 100%. Further, the “Post-emergence Crop Selectivity, percentage phytotoxicity, Wheat +CQC” value in data set [3] came out at 0%. Besides, in data set [3], the “Post-emergence Crop Selectivity, percentage phytotoxicity, Wheat − CQC” value is 60%.

For `Cc1cc(C)c(C2C(=O)CC(CC(=O)NCC(C)(C)C)C2=O)c(C)c1` (stereo not drawn) [Compound A14], the pest or weed control at 250 g/ha in data set [1] (setting [4]) stood at 80%; in data set [1] (setting [5]), 100%; in data set [2] (setting [6]) it was 80%; in data set [2] (setting [7]) it was 90%; with Avena fatua (AVEFA) (setting [8]), 70%; in the data set on Avena fatua (AVEFA) (setting [9]), 70%. Further, the pest or weed control at 250 g/ha in the data set with Lolium perenne (LOLPE) (setting [10]) and in the data set with Lolium perenne (LOLPE) (setting [11]) was 80% throughout. Also, the “Post-emergence Crop Selectivity, percentage phytotoxicity, Wheat +CQC” value in data set [3] is reported as 10%. In addition, the “Post-emergence Crop Selectivity, percentage phytotoxicity, Wheat − CQC” value in data set [3] came to 60%.

As for `Cc1cc(-c2cncnc2)cc(C)c1C1C(=O)CC(CC(=O)NCc2cccc(Cl)c2)C1=O` (stereo not drawn) [Compound A142], the pest or weed control at 250 g/ha in data set [1] (setting [4]) was 60%; in data set [1] (setting [5]) it was 30%; in data set [2] (setting [7]), 0%; in the data set on Avena fatua (AVEFA) (setting [9]), 0%; with Lolium perenne (LOLPE) (setting [10]), 20%; in the data set with Lolium perenne (LOLPE) (setting [11]), 20%. Moreover, the “Post-emergence Crop Selectivity, percentage phytotoxicity, Wheat +CQC” value in data set [3] is listed as 50%. Also, the “Post-emergence Crop Selectivity, percentage phytotoxicity, Wheat − CQC” value in data set [3] is reported as 70%.

As for `Cc1cc(C)c(C2C(=O)CC(CC(=O)NC3CCCC3)C2=O)c(C)c1` (stereo not drawn) [Compound A21], the pest or weed control at 250 g/ha in data set [1] (setting [4]) turned out to be 80%; in data set [1] (setting [5]) it was 80%; in data set [2] (setting [6]), 80%; in data set [2] (setting [7]), 70%; with Avena fatua (AVEFA) (setting [8]) it was 70%; in the data set with Avena fatua (AVEFA) (setting [9]), 50%. In addition, the pest or weed control at 250 g/ha with Lolium perenne (LOLPE) (setting [10]) and in the data set on Lolium perenne (LOLPE) (setting [11]) was 80% throughout. In addition, the “Post-emergence Crop Selectivity, percentage phytotoxicity, Wheat +CQC” value in data set [3] is listed as 0%. For the same compound, the “Post-emergence Crop Selectivity, percentage phytotoxicity, Wheat − CQC” value in data set [3] amounted to 60%.

Take `CCCNC(=O)CC1CC(=O)C(c2c(C)cc(C)cc2C)C1=O` (stereo not drawn) [Compound A26]: the pest or weed control at 250 g/ha came to 80% in data set [1] (setting [4]); 80% in data set [1] (setting [5]); 80% in data set [2] (setting [6]); 80% in data set [2] (setting [7]); 80% in the data set with Avena fatua (AVEFA) (setting [8]); 70% with Avena fatua (AVEFA) (setting [9]). Besides, the pest or weed control at 250 g/ha in the data set on Lolium perenne (LOLPE) (setting [10]) was 90%; in the data set on Lolium perenne (LOLPE) (setting [11]), 100%. In addition, the “Post-emergence Crop Selectivity, percentage phytotoxicity, Wheat +CQC” value in data set [3] is 40%. For the same compound, the “Post-emergence Crop Selectivity, percentage phytotoxicity, Wheat − CQC” value in data set [3] is recorded as 70%.

For the compound `CCCCNC(=O)CC1CC(=O)C(c2c(C)cc(C)cc2C)C1=O` (stereo not drawn) [Compound A12], the pest or weed control at 250 g/ha turned out to be 80% in data set [1] (setting [4]); 100% in data set [1] (setting [5]); 100% in data set [2] (setting [6]); 90% in data set [2] (setting [7]); 80% in the data set with Avena fatua (AVEFA) (setting [8]); 70% in the data set with Avena fatua (AVEFA) (setting [9]). Also, the pest or weed control at 250 g/ha with Lolium perenne (LOLPE) (setting [10]) amounted to 90%; in the data set on Lolium perenne (LOLPE) (setting [11]) it was 100%. In data set [3], the “Post-emergence Crop Selectivity, percentage phytotoxicity, Wheat +CQC” value worked out at 0%. In data set [3], the “Post-emergence Crop Selectivity, percentage phytotoxicity, Wheat − CQC” value worked out at 70%.

Turning to `CCNC(=O)CC1CC(=O)C(c2c(C)cc(C)cc2C)C1=O` (stereo not drawn) [Compound A20], the pest or weed control at 250 g/ha in data set [1] (setting [4]) came to 100%; in data set [1] (setting [5]), 100%; in data set [2] (setting [6]), 80%; in data set [2] (setting [7]), 70%; in the data set on Avena fatua (AVEFA) (setting [8]), 80%; with Avena fatua (AVEFA) (setting [9]) it was 70%. Moreover, the pest or weed control at 250 g/ha in the data set with Lolium perenne (LOLPE) (setting [10]) and with Lolium perenne (LOLPE) (setting [11]) was 100% in each case. Besides, the “Post-emergence Crop Selectivity, percentage phytotoxicity, Wheat +CQC” value in data set [3] came out at 20%. Further, in data set [3], the “Post-emergence Crop Selectivity, percentage phytotoxicity, Wheat − CQC” value worked out at 40%.

Consider `Cc1cc(C)c(C2C(=O)CC(CC(=O)N3CCCCC3)C2=O)c(C)c1` (stereo not drawn) [Compound A22], for which the pest or weed control at 250 g/ha in data set [1] (setting [4]) is 90%; in data set [1] (setting [5]) it was 100%; in data set [2] (setting [6]), 80%; in data set [2] (setting [7]), 60%; with Avena fatua (AVEFA) (setting [8]), 60%; with Avena fatua (AVEFA) (setting [9]), 30%. The pest or weed control at 250 g/ha came out at 80% with Lolium perenne (LOLPE) (setting [10]) and 70% with Lolium perenne (LOLPE) (setting [11]). Also, the “Post-emergence Crop Selectivity, percentage phytotoxicity, Wheat +CQC” value in data set [3] is given as 50%. Further, the “Post-emergence Crop Selectivity, percentage phytotoxicity, Wheat − CQC” value in data set [3] stood at 60%.

As to `Cc1cc(C)c(C2C(=O)CC(CC(=O)NCc3cccs3)C2=O)c(C)c1` (stereo not drawn) [Compound A6], the pest or weed control at 250 g/ha in data set [1] (setting [4]) is 90%; in data set [1] (setting [5]), 100%; in data set [2] (setting [6]), 90%; in data set [2] (setting [7]), 90%; in the data set with Avena fatua (AVEFA) (setting [8]) it was 90%; in the data set with Avena fatua (AVEFA) (setting [9]), 60%. Further, the values for the pest or weed control at 250 g/ha with Lolium perenne (LOLPE) (setting [10]) and in the data set on Lolium perenne (LOLPE) (setting [11]) were 90% and 100%, respectively. Moreover, the “Post-emergence Crop Selectivity, percentage phytotoxicity, Wheat +CQC” value in data set [3] was 10%. Moreover, the “Post-emergence Crop Selectivity, percentage phytotoxicity, Wheat − CQC” value in data set [3] worked out at 70%.

Regarding `Cc1cc(C)c(C2C(=O)CC(CC(=O)NCC(C)C)C2=O)c(C)c1` (stereo not drawn) [Compound A5], the pest or weed control at 250 g/ha in data set [1] (setting [4]) was 80%; in data set [1] (setting [5]), 100%; in data set [2] (setting [6]), 90%; in data set [2] (setting [7]), 100%; with Avena fatua (AVEFA) (setting [8]), 80%; in the data set with Avena fatua (AVEFA) (setting [9]), 70%. The pest or weed control at 250 g/ha in the data set on Lolium perenne (LOLPE) (setting [10]) is 80%; with Lolium perenne (LOLPE) (setting [11]), 100%. In addition, in data set [3], the “Post-emergence Crop Selectivity, percentage phytotoxicity, Wheat +CQC” value was found to be 10%. Also, the “Post-emergence Crop Selectivity, percentage phytotoxicity, Wheat − CQC” value in data set [3] is on record as 80%.

Consider `Cc1cc(C)c(C2C(=O)CC(CC(=O)NCC3CC3)C2=O)c(C)c1` (stereo not drawn) [Compound A19], for which the pest or weed control at 250 g/ha in data set [1] (setting [4]) is 80%; in data set [1] (setting [5]), 90%; in data set [2] (setting [6]) it was 90%; in data set [2] (setting [7]), 90%; in the data set on Avena fatua (AVEFA) (setting [8]), 80%; in the data set with Avena fatua (AVEFA) (setting [9]) it was 70%. Moreover, the pest or weed control at 250 g/ha in the data set with Lolium perenne (LOLPE) (setting [10]) and in the data set with Lolium perenne (LOLPE) (setting [11]) was 90% throughout. The “Post-emergence Crop Selectivity, percentage phytotoxicity, Wheat +CQC” value in data set [3] was found to be 40%. The “Post-emergence Crop Selectivity, percentage phytotoxicity, Wheat − CQC” value in data set [3] was 80%.
